Reference: patent publication US9856298B2 (priority 2011, dated 2018)
≈ marks a conversion by molar mass, not a printed value. Like-named read-outs stand apart in the source and are kept apart here. Square brackets hold non-standard residues; d marks the D form. Primed or numbered codes have the meaning given here. Side chains are listed from the residue outwards. Peptide text beside a SMILES is read from it. * marks the point of attachment. Orn(α-tetramethylguanidino) = CN(C)C(=N[C@@H](CCCN)C(=O)*)N(C)C; Guan″ = guanidino group at the N-terminus, N=C(N)*; sPEG750 = PEG of 750 linked via acid group; Guan = N-guanidino (N-terminal), N=C(N)*; Hyp = O=C(O)[C@@H]1C[C@@H](O)CN1; Tle = CC(C)(C)[C@H](N)C(=O)O; Orn = NCCC[C@H](N)C(=O)O

Tests used:
[1] = test system: Escherichia coli strain BL21AI; assay: Minimum inhibitory concentration in 1% TSB; type: cell-based; details: for MIC in TSB: E. coli BL21AI, 1% TSB, 20 hours at 37° C.; for Effect of peptide linker or remaining linker residues on the MIC: compared with the unmodified peptide
Protocol: (§1) To that end, the peptides were dissolved in water and diluted in a two-fold dilution series with 1% aqueous soybean medium (TSB) in sterile 96-well plates (Greiner Bio-One GmbH) from 128 μg/ml in twelve dilution steps to 62.5 ng/ml. Overnight cultures of Escherichia coli strain BL21AI were adjusted with 1% TSB to about […] colony forming units per ml. In each case 50 μl of peptide solution per well were then mixed with in each case 50 μl of the bacteria solution, in order to achieve a starting concentration of 4×10^5 bacteria per well. After incubation for 20 hours at 37° C., the absorption at 595 nm was determined (microplate reader, TECAN Trading AG).

[2] = Serum stability / release of peptide in pure mouse serum (100%) (RP-HPLC, MALDI-MS)
Protocol: (§2) 30 μl of a 1 mg/ml peptide solution were diluted with 120 μl of water and, after addition of 50 of serum, incubated at 37° C. for 0 hours, 0.5 hour, 1 hour, 2 hours or 4 hours. Alternatively, the peptide derivatives having a starting concentration of 3 mg/ml were diluted with serum to a final concentration of 15 μg/ml. According to the stability of the peptides, the samples were analysed at the times mentioned above or after 0 hours, 4 hours and 6 hours. The serum proteins were precipitated by addition of 50 μl of 15% TCA, and the supernatant was neutralised with 25 μl of 1 mol/l NaOH. The samples were made up to 250 μl with 5% B, 230 μl of the solution were transferred into a HPLC vial, and 220 μl were injected.
(§3) RP-HPLC analysis was carried out with a linear acetonitrile gradient (Biosolve BV, Valkenswaard, Netherlands) in the presence of 0.1% trifluoroacetic acid (TFA, UV grade, Fluka Chemie GmbH, Buchs, Switzerland) as ion-pair reagent. The fractions were co-crystallised with α-cyanohydroxycinnamic acid (Bruker Daltonik GmbH; Bremen, Germany) as matrix (4 mg/ml in 60% acetonitrile in 0.1% aqueous TFA) and analysed with a tandem mass spectrometer (MALDI-TOF/TOF-MS, 4700 Proteomics Analyzer; Applied Biosystems GmbH, Weiterstadt, Germany) in positive-ion reflector mode. The amount of intact peptides and their degradation products or metabolites could thus be identified and quantified at the individual times. 25% aqueous mouse serum, which was analysed in parallel for the same time intervals, was used as control.

[3] = test system: Escherichia coli strain BL21AI; assay: Minimum inhibitory concentration in TSB in the presence of 25% mouse serum; type: cell-based; details: E. coli BL21AI, TSB with 25% mouse serum, 20 hours at 37° C.
Protocol: as §1
In addition, the antibacterial activity was also determined in the presence of 25% mouse serum. To that end, the MIC values were determined as described above, but 25 μl of mouse serum were also added to each well before the incubation (25% final concentration).

[4] = mouse; for uncleaved peptide remaining after the indicated time (instead of half-life): serum, 6 h, 15 µg/ml
Protocol: as §2, §3

Row | Compound | MIC in TSB [1] | MIC in TSB/mouse serum [3] | other results
1 | CC(C)C[C@H](NC(=O)[C@H](Cc1ccc(O)cc1)NC(=O)[C@@H]1CCCN1C(=O)[C@@H]1CCCN1C(=O)[C@H](CCCCN)NC(=O)[C@H](CC(=O)O)NC(=O)[C@@H](NC(=O)[C@H](CCCNC(=N)N)NC(=O)[C@H](C)NC(=O)CN)C(C)C)C(=O)N1CCC[C@H]1C(=O)N[C@@H](CCCNC(=N)N)C(=O)N1CCC[C@H]1C(=O)N[C@@H](CCCNC(=N)N)C(=O)N1CCC[C@H]1C(=O)N1C[C@H](O)C[C@H]1C(=O)N[C@@H](CCCNC(=N)N)C(=O)N1C[C@H](O)C[C@H]1C(=O)N[C@H](C(=O)N[C@@H](Cc1ccc(O)cc1)C(=O)N[C@@H](CC(N)=O)C(=O)N[C@@H](CCCN)C(N)=O)C(C)(C)C [GAR-Onc 110] (H-GARVDKPPYLPRPRP[Hyp]R[Hyp][Tle]YN[Orn]-NH2) | 1.5 µM (≈ 3.91 µg/mL) | 0.65 µM | Effect of peptide linker or remaining linker residues on the MIC [1]: does not increase the MIC or increases it only insignificantly; remaining at 4 h, 15 µg/ml ([2]; mouse, pure (100%) mouse serum): 75%
2 | Guan-ONO(sPEG^750-GARSG)RPVYIPRPRPPHPRL-OH ({Guan″}-[Orn]N[Orn]RPVYIPRPRPPHPRL-OH; not fully specified (residue 3)) [Api 301 (sPEG^750-GARSG)] | 2.9 µM | 0.27 µM | Half-life (t1/2) in serum [4]: 0.75 h
3 | sPEG^750-GAR-VDKPPYLPRPRPPROIYNO-NH2 (sPEG750-GARVDKPPYLPRPRPPR[Orn]IYN[Orn]-NH2) [sPEG^750-GAR-Onc 72] | 12.2 µM | 6.1 µM | Half-life (t1/2) in serum ([2]; pure mouse serum, 37° C.): 6 h
4 | H-GNNRPVYIPQPRPPHPRL-OH [Apidaecin 1b, reference compound] | 0.48 µM | 1.75 µM | 
5 | Guan-OO(sPEG^750-GARSG)NRPVYIPRPRPPHPRL-OH (Guan-[Orn][Orn]NRPVYIPRPRPPHPRL-OH; not fully specified (residue 2)) [Api 300 (sPEG^750-GARSG)] | 2.9 µM | 0.54 µM | Half-life (t1/2) in serum [4]: 0.583 h
6 | Guan-OO(sPEG^750-GRSG)NRPVYIPRPRPPHPRL-OH (Guan-[Orn][Orn]NRPVYIPRPRPPHPRL-OH; not fully specified (residue 2)) [Api 300 (sPEG^750-GRSG)] | 2.9 µM | 0.37 µM | Half-life (t1/2) in serum [4]: 0.833 h
7 | Guan-OO(tPEG^5000-GARSG)NRPVYIPRPRPPHPRL-OH (Guan-[Orn][Orn]NRPVYIPRPRPPHPRL-OH; not fully specified (residue 2)) [Api 300 (tPEG^5000-GARSG)] | 17.4 µM | 0.44 µM | uncleaved peptide remaining after the indicated time (instead of half-life) [4]: 69%
8 | CC[C@H](C)[C@H](NC(=O)[C@H](CCCN)NC(=O)[C@H](CCCNC(=N)N)NC(=O)[C@@H]1CCCN1C(=O)[C@@H]1CCCN1C(=O)[C@H](CCCNC(=N)N)NC(=O)[C@@H]1CCCN1C(=O)[C@H](CCCNC(=N)N)NC(=O)[C@@H]1CCCN1C(=O)[C@H](CC(C)C)NC(=O)[C@H](Cc1ccc(O)cc1)NC(=O)[C@@H]1CCCN1C(=O)[C@@H]1CCCN1C(=O)[C@H](CCCCN)NC(=O)[C@H](CC(=O)O)NC(=O)[C@@H](N)C(C)C)C(=O)N[C@@H](Cc1ccc(O)cc1)C(=O)N[C@@H](CC(N)=O)C(=O)N[C@@H](CCCN)C(N)=O [Onc 72, VDKPPYLPRPRPPROIYNO-NH2] (H-VDKPPYLPRPRPPR[Orn]IYN[Orn]-NH2) | 1.7 µM (≈ 3.92 µg/mL) | 1.7 µM | 
9 | CC[C@H](C)[C@H](NC(=O)[C@H](CCCN)NC(=O)[C@H](CCCNC(=N)N)NC(=O)[C@@H]1CCCN1C(=O)[C@@H]1CCCN1C(=O)[C@H](CCCNC(=N)N)NC(=O)[C@@H]1CCCN1C(=O)[C@H](CCCNC(=N)N)NC(=O)[C@@H]1CCCN1C(=O)[C@H](CC(C)C)NC(=O)[C@H](Cc1ccc(O)cc1)NC(=O)[C@@H]1CCCN1C(=O)[C@@H]1CCCN1C(=O)[C@H](CCCCN)NC(=O)[C@H](CC(=O)O)NC(=O)[C@@H](NC(=O)[C@H](CCCNC(=N)N)NC(=O)[C@H](C)NC(=O)CN)C(C)C)C(=O)N[C@@H](Cc1ccc(O)cc1)C(=O)N[C@@H](CC(N)=O)C(=O)N[C@@H](CCCN)C(N)=O [GAR-Onc 72, GAR-VDKPPYLPRPRPPROIYNO-NH2] (H-GARVDKPPYLPRPRPPR[Orn]IYN[Orn]-NH2) | 3.1 µM (≈ 8.03 µg/mL) |  | Effect of peptide linker or remaining linker residues on the MIC [1]: does not increase the MIC or increases it only insignificantly; remaining at 4 h, 15 µg/ml ([2]; mouse, pure (100%) mouse serum): 85%
10 | CC[C@H](C)[C@H](NC(=O)[C@H](Cc1ccc(O)cc1)NC(=O)[C@@H](NC(=O)[C@@H]1CCCN1C(=O)[C@H](CCCNC(=N)N)NC(=O)[C@H](CC(N)=O)NC(=O)[C@H](CC(N)=O)NC(=O)[C@H](CCCN)N=C(N(C)C)N(C)C)C(C)C)C(=O)N1CCC[C@H]1C(=O)N[C@@H](CCCNC(=N)N)C(=O)N1CCC[C@H]1C(=O)N[C@@H](CCCNC(=N)N)C(=O)N1CCC[C@H]1C(=O)N1CCC[C@H]1C(=O)N[C@@H](Cc1c[nH]cn1)C(=O)N1CCC[C@H]1C(=O)N[C@@H](CCCNC(=N)N)C(=O)N[C@@H](CC(C)C)C(N)=O [Api 88, Guan-ONNRPVYIPRPRPPHPRL-NH2, reference compound] ({Orn(α-tetramethylguanidino)}-NNRPVYIPRPRPPHPRL-NH2) | 0.44 µM (≈ 1.01 µg/mL) | 1.19 µM | 
11 | CC[C@H](C)[C@H](NC(=O)[C@H](Cc1ccc(O)cc1)NC(=O)[C@@H](NC(=O)[C@@H]1CCCN1C(=O)[C@H](CCCNC(=N)N)NC(=O)[C@H](CC(N)=O)NC(=O)[C@H](CCCNC(=O)CNC(=O)[C@@H](N)CO)NC(=O)[C@H](CCCN)N=C(N(C)C)N(C)C)C(C)C)C(=O)N1CCC[C@H]1C(=O)N[C@@H](CCCNC(=N)N)C(=O)N1CCC[C@H]1C(=O)N[C@@H](CCCNC(=N)N)C(=O)N1CCC[C@H]1C(=O)N1CCC[C@H]1C(=O)N[C@@H](Cc1c[nH]cn1)C(=O)N1CCC[C@H]1C(=O)N[C@@H](CCCNC(=N)N)C(=O)N[C@@H](CC(C)C)C(=O)O [Api 300 (SG)] ({Orn(α-tetramethylguanidino)}-[Orn]([Gly-Ser])NRPVYIPRPRPPHPRL-OH) | 0.8 µM (≈ 1.95 µg/mL) | 0.21 µM | Effect of peptide linker or remaining linker residues on the MIC [1]: does not increase the MIC or increases it only insignificantly; half-life at 15 µg/ml ([2]; mouse, pure (100%) mouse serum): 4 h
12 | CC[C@H](C)[C@H](NC(=O)[C@H](Cc1ccc(O)cc1)NC(=O)[C@@H](NC(=O)[C@@H]1CCCN1C(=O)[C@H](CCCNC(=N)N)NC(=O)[C@H](CC(N)=O)NC(=O)[C@H](CC(N)=O)NC(=O)[C@H](CCCN)N=C(N(C)C)N(C)C)C(C)C)C(=O)N1CCC[C@H]1C(=O)N[C@@H](CCCNC(=N)N)C(=O)N1CCC[C@H]1C(=O)N[C@@H](CCCNC(=N)N)C(=O)N1CCC[C@H]1C(=O)N1CCC[C@H]1C(=O)N[C@@H](Cc1c[nH]cn1)C(=O)N1CCC[C@H]1C(=O)N[C@@H](CCCN)C(=O)N[C@@H](CC(C)C)C(N)=O [Api 134, Guan-ONNRPVYIPRPRPPHPOL-NH2, reference compound] ({Orn(α-tetramethylguanidino)}-NNRPVYIPRPRPPHP[Orn]L-NH2) | 1.78 µM (≈ 4 µg/mL) | 7.12 µM | 
13 | tPEG^750-GAR-VDKPPYLPRPRPPROIYNO-NH2 (tPEG750-GARVDKPPYLPRPRPPR[Orn]IYN[Orn]-NH2; not fully specified; printed as tPEG^750-GAR-VDKPPYLPRPRPPROIYNO-NH2) [tPEG^750-GAR-Onc 72] | 24.3 µM |  | uncleaved peptide remaining after the indicated time (instead of half-life) ([2]; pure mouse serum, 6 h): 55%
14 | CC[C@H](C)[C@H](NC(=O)[C@H](Cc1ccc(O)cc1)NC(=O)[C@@H](NC(=O)[C@@H]1CCCN1C(=O)[C@H](CCCNC(=N)N)NC(=O)[C@H](CCCNC(=O)CNC(=O)[C@@H](N)CO)NC(=O)[C@H](CC(N)=O)NC(=O)[C@H](CCCN)N=C(N(C)C)N(C)C)C(C)C)C(=O)N1CCC[C@H]1C(=O)N[C@@H](CCCNC(=N)N)C(=O)N1CCC[C@H]1C(=O)N[C@@H](CCCNC(=N)N)C(=O)N1CCC[C@H]1C(=O)N1CCC[C@H]1C(=O)N[C@@H](Cc1c[nH]cn1)C(=O)N1CCC[C@H]1C(=O)N[C@@H](CCCNC(=N)N)C(=O)N[C@@H](CC(C)C)C(=O)O [Api 301 (SG)] ({Orn(α-tetramethylguanidino)}-N[Orn]([Gly-Ser])RPVYIPRPRPPHPRL-OH) | 1.6 µM (≈ 3.9 µg/mL) |  | Effect of peptide linker or remaining linker residues on the MIC [1]: does not increase the MIC or increases it only insignificantly; remaining at 4 h, 15 µg/ml ([2]; mouse, pure (100%) mouse serum): 60%
15 | sPEG^750-GAR-VDKPPYLPRPRPHypRHypTleYNO-NH2 (sPEG750-GARVDKPPYLPRPRP[Hyp]R[Hyp][Tle]YN[Orn]-NH2) [sPEG^750-GAR-Onc 110] | 24.3 µM | 9.2 µM | uncleaved peptide remaining after the indicated time (instead of half-life) [4]: 73%
